Measurements from patent US12246026B2, “Ganaxolone for use in treatment of status epilepticus” (Marinus Pharmaceuticals, Inc., priority 2019, dated 2025).

Assays:
[1] = Solubility of ganaxolone; format: physicochemical
Method: Ganaxolone is insoluble in water. […] Ganaxolone has a relatively long half-life—approximately 20 hours in human plasma following oral administration (Nohria, V. and Giller, E., Neurotherapeutics, (2007) 4(1): 102-105). Furthermore, ganaxolone has a short Tmax, which means that therapeutic blood levels are reached quickly.
Ganaxolone formulations suitable for parenteral administration in the methods of the present invention may comprise physiologically acceptable sterile aqueous or non-aqueous solutions, dispersions, suspensions or emulsions, and sterile powders for reconstitution into sterile injectable solutions or dispersions. Examples of suitable aqueous and non-aqueous carriers, diluents, solvents, or vehicles including water, ethanol, polyols (propylene glycol, polyethylene-glycol, glycerol, cremophor and the like), suitable mixtures thereof, vegetable oils (such as olive oil) and injectable organic esters such as ethyl oleate. Additionally, ganaxolone can be dissolved at concentrations of >1 mg/ml using water soluble beta cyclodextrins (e.g. beta-sulfobutyl-cyclodextrin and 2-hydroxypropylbetacyclodextrin). A particularly suitable cyclodextrin is a substituted-β-cyclodextrin is Captisol®. […]

[2] = Toxicology studies in animals on prenatal and neonatal development; format: in vivo
Description: Ganaxolone has been administered to infants with severe forms of epilepsy as early as 4 months of age. In clinical trials involving administration of ganaxolone over several weeks, the study drug has been tapered off over a 1 to 2-week period.

[3] = Phase 1 IV ganaxolone pharmacokinetics in healthy subjects; format: in vivo, human
Method: (§1) A Phase I clinical trial evaluating IV ganaxolone formulation was performed. The clinical trial was designed to investigate the safety, pharmacokinetics, and pharmacodynamics of an intravenous bolus of ganaxolone and continuous intravenous infusion of ganaxolone in 30 healthy subjects. Subjects were administered either an intravenous bolus of ganaxolone in an amount of 10-20 mg for a period of 2 minutes to 1 hour, or an intravenous bolus of ganaxolone in an amount of 6 mg for a period of 5 minutes with a continuous intravenous infusion in an amount of 20 mg/hr for a period of 4 hours.
(§2) There was little or no delay between the appearance of drug in plasma and a change in the BIS score.

[4] = test system: healthy subjects; test: Phase 1 IV ganaxolone pharmacodynamics (BIS, EEG) in healthy subjects; format: in vivo, human
Method: as §1, §2

[5] = Phase 2 Study 1042-SE-2001 open-label group, GNX plasma concentration and PK modeling; format: in vivo, human
Method: These infusion dosing parameters are expected to result in daily doses of ganaxolone of about ≤714 mg/day and Captisol of about ≤50 grams/day. Based on PK modeling, it is predicted that maximum concentrations of ganaxolone should remain within 1,000 ng/mL during infusion, but some variability is expected due to, for example, differences in subjects' weight.
As of 22 Mar. 2019, 5 subjects were enrolled into the Study 1042-SE-2001 open-label group under the original protocol that limits daily Captisol exposure at 35 g/day. […] The initial EEG pattern post-infusion initiation was described by study physicians as a “light” burst suppression that was maintained for several hours in all subjects. […] It was observed that when GNX exposure was lowered (20 mg/hr for 2 hours and ending with 10 mg/hr for the remaining 18 hours on Day 1) in order not to exceed this limit, seizure control could not be maintained and seizure activity (but not SE) re-occurred as evidenced by EEG changes. […] Seizure activity relapsed when plasma concentrations of GNX decreased <500 ng/mL in 4 out of 5 subjects.

[6] = test system: subject with SRSE; test: Emergency IND No. 131,642, IV GNX in SRSE, EEG response; format: in vivo, human
Method: (§3) Under eIND No. 131,642, IV GNX was administered to a subject with SRSE who was unable to maintain status cessation with ketamine and barbiturates. The Day 1 dosage regimen delivered 900 mg of GNX, equating to a 900 to 1200 ng/mL plasma concentration of GNX. As the subject could not be maintained in burst suppression, the clinical team was able to utilize EEG changes to gauge the response (FIG. 11). […] However, due to the dosing plan agreed upon with the FDA with a daily Captisol limit of 63 g/day, the initial 120 mg/hr dose on Day 1 could not be maintained for longer than 1 hour and then had to be decreased to the 30 mg/hr dose. The first seizures re-occurred within 15 to 20 minutes of the change in GNX dose from 120 mg/hr to 30 mg/hr.

[7] = Emergency IND No. 131,642, GNX plasma concentration; format: in vivo; settings: human, intravenous, eIND 131,642, Day 1 regimen delivering 900 mg
Method: as §3

[8] = cited from earlier work
[9] = Phase 2 open-label dose range study, safety
Description: Secondary objectives included assessment of adverse events and evaluation of the pharmacokinetics of IV ganaxolone in patients with SE.

[10] = test system: pediatric subject with SRSE; test: Emergency IND No. 137,883, IV GNX in pediatric SRSE
[11] = PK modeling data from 5 subjects

Q: For `CC(=O)[C@H]1CC[C@H]2[C@@H]3CC[C@H]4C[C@](C)(O)CC[C@]4(C)[C@H]3CC[C@]12C` [Ganaxolone, 3α-hydroxy-3β-methyl-5α-pregnan-20-one], which solubility ([1]; aqueous with cosolvent or surfactant or cyclodextrin, beta-sulfobutyl-cyclodextrin, 2-hydroxypropylbetacyclodextrin, read-out: dissolved concentration using water soluble beta cyclodextrins) is on record?
A: > 1000 µg/mL

Q: What about the solubility in water ([1]; water) of the same compound?
A: insoluble

Q: And the “toxicities in prenatal and neonatal development studies” value [2]?
A: have not demonstrated toxicities

Q: What about the “ganaxolone levels in plasma” value ([3]; all 30 healthy subjects, IV bolus or bolus plus infusion) of the same compound?
A: quantifiable

Q: What about the “dose relation of plasma concentrations” value ([3]; healthy subjects, IV) of the same compound?
A: generally proportional to the administered dose

Q: And the “EEG and BIS changes” value ([4]; Phase 1, FIG. 1)?
A: consistent with sedative/anesthetic effects

Q: What about the “bispectral index (BIS) score versus plasma concentration” value ([4]; healthy subjects, IV) of the same compound?
A: higher plasma concentration was associated with lower BIS scores

Q: And the “GNX exposure associated with seizure relapse” value [5, 11]?
A: < 500 ng/mL

Q: What about the “GNX exposure level associated with rapid and complete SE suppression” value [5, 11] of the same compound?
A: approximately 1000 ng/mL

Q: And the “GNX plasma concentration at the time of seizure relapse” value (“GNX plasma concentration at the time” for short) ([5]; Subject 004-101)?
A: < 500 ng/mL

Q: And the “GNX plasma concentration at the time” value ([5]; Subject 006-101)?
A: < 500 ng/mL

Q: And the “GNX plasma concentration at the time” value ([5]; Subject 006-102)?
A: < 500 ng/mL

Q: What about the “dose at which the effect of GNX started” value ([6]; eIND 131,642) of the same compound?
A: 60 mg/h

Q: And the EEG seizure response ([6]; eIND 131,642, at 120 mg/hr)?
A: complete seizure cessation

Q: And the “time to first seizure re-occurrence after dose change” value ([6]; eIND 131,642, change from 120 mg/hr to 30 mg/hr)?
A: 15 to 20 min

Q: What about the concentration at 1 day [7] of the same compound?
A: 900 to 1200 ng/mL

Q: And the half-life ([8]; human plasma following oral administration)?
A: approximately 20 hours

Q: What about the Tmax ([8]; human) of the same compound?
A: short

Q: And the “tolerability of GNX infusion” value ([9]; 17 RSE patients)?
A: generally well-tolerated

Q: What about the “participants with SAEs (severe sedation) assessed as related to GNX, leading to early discontinuation” value ([9]; concomitant CNS depressant medications) of the same compound?
A: 2 participants

Q: And the “duration of suppressed EEG background” value ([10]; eIND 137,883)?
A: approximately 2 hours

Q: What about the “finding on examination leading to stop of infusion” value ([10]; eIND 137,883) of the same compound?
A: nonreactive pupils

Q: And the “EEG at the time of GNX bolus infusion” value ([10]; eIND 137,883, concomitant pentobarbital 2.25 mg/kg/hr)?
A: continuous suppressed background
